“And” between values parts separate entries of the source, which are not always exact repeats. Identical values can stand only once. The source made the active and inactive calls.
Assays:
[1] = biological target: T1, High affinity choline transporter 1 (Homo sapiens, UniProt Q9GZV3); test: human choline transporter blockers, potency – cell-based, 5-point CRC, membrane potential dye, dose response (AID 504840); assay type: functional
T1 sequence (Q9GZV3 whole entry): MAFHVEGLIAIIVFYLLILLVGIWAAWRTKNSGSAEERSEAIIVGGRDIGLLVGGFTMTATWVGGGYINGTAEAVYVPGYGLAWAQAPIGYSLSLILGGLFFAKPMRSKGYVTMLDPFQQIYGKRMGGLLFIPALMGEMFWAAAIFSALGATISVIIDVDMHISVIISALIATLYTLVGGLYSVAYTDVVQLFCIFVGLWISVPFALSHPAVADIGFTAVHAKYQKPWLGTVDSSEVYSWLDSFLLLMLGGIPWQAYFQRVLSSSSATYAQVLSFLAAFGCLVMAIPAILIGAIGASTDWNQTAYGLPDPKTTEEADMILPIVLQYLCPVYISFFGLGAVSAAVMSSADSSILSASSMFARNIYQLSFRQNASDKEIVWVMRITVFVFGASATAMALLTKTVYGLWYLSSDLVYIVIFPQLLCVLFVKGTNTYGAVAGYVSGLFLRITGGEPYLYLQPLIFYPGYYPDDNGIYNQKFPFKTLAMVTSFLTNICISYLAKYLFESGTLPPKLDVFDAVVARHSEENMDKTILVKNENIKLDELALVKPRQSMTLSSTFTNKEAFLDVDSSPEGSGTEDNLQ

[2] = biological target: T1, High affinity choline transporter 1; test: human choline transporter blockers, potency – cell-based, 10-point CRC, membrane potential dye, dose response (AID 588401); assay type: functional;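 note: membrane potential dye fluorescence of choline-evoked depolarization via CHT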
[3] = biological target: T1, High affinity choline transporter 1; test: human choline transporter radiolabel uptake blockers – cell-based, 3H-choline uptake, CHT LV-AA trafficking mutant, CRC, dose response (AID 602208); assay type: functional
[4] = biological target: T2, Cyclin-dependent kinase 5/CDK5 activator 1 (Homo sapiens, UniProt Q00535); test: inhibitors of human CDK5 activity – biochemical, microfluidic mobility shift, dry powder, set 2, selectivity assay for GSK3beta inhibitor project, dose response (AID 623979); assay type: functional
[5] = biological target: T3, Glycogen synthase kinase-3 alpha (Homo sapiens, UniProt P49840); test: Inhibition of Human GSK-3 alpha Activity Measured in Biochemical System Using Microfluidics - 2063-06_Inhibitor_Dose_DryPowder_Activity_Set2. [Related pubchem assays (depositor defined):AID2709]
[6] = biological target: T3, Glycogen synthase kinase-3 alpha; test: GSK3A enzyme blockers, homolog specificity check – biochemical, microfluidics, dry powder samples, set 2, selectivity assay for GSK3beta inhibitor project, dose response (AID 623978); assay type: functional
[7] = biological target: T4, Glycogen synthase kinase-3 beta (Homo sapiens, UniProt P49841); test: Inhibition of Human GSK-3 beta Activity Measured in Biochemical System Using Microfluidics - 2063-05_Inhibitor_Dose_DryPowder_Activity_Set2. [Related pubchem assays (depositor defined):AID2709]
[8] = biological target: T4, Glycogen synthase kinase-3 beta; test: inhibition of human GSK3B activity – biochemical, microfluidics, dry powder samples, set 2, dose response (AID 623989); assay type: functional
[9] = biological target: T2, Cyclin-dependent kinase 5/CDK5 activator 1; test: human CDK5 activity blockade – biochemical, microfluidic mobility shift, dry powder, selectivity assay for GSK-3 alpha inhibitor project, dose response (AID 588430)
[10] = tested on: INS1; test: INS-1E mitochondrial potential rescue under cytokines – cell-based, JC-1 fluorescence ratio, dry powder, dose response (AID 488931); assay type: functional; conditions: Rattus norvegicus
[11] = tested on: INS1; test: Primary beta islet insulin ELISA Measured in Cell-Based System Using Plate Reader - 2061-09_Inhibitor_Dose_DryPowder_Activity. [Related pubchem assays (depositor defined):AID435007]; assay type: functional; conditions: Rattus norvegicus
[12] = tested on: INS1; test: suppression of cytokine-induced beta-cell apoptosis – INS-1E, caspase luminescence, dry powder, beta-cell apoptosis inhibitor project, dose response (AID 488848); assay type: functional, cell-based; conditions: Rattus norvegicus
[13] = suppression of NO production in INS-1E cells – cell-based, Griess absorbance, dry powder, set 3, dose response (AID 488870); assay type: functional, Rattus norvegicus
[14] = tested on: INS1; test: Glucose-induced Insulin secretion ELISA Measured in Cell-Based System Using Plate Reader - 2061-05_Inhibitor_Dose_DryPowder_Activity. [Related pubchem assays (depositor defined):AID435007]; assay type: functional; conditions: Rattus norvegicus
[15] = Primary Beta Cell Apoptosis assay Measured in Cell-Based System Using Plate Reader - 2061-07_Inhibitor_Dose_DryPowder_Activity_Set2. [Related pubchem assays (depositor defined):AID435007]; assay type: functional; conditions: Homo sapiens
[16] = biological target: Latent membrane protein 1 (Human herpesvirus 4 (strain B95-8), UniProt P03230); test: LMP1 TES1 pathway selectivity over dsRED control – imaging, HEK293T, dual-color eGFP/dsRED, cherry-picks, selectivity assay for LMP1 NF-kB inhibitor project, dose response (AID 588398); assay type: functional, cell-based
[17] = biological target: T5, Receptor-type tyrosine-protein kinase FLT3 (Homo sapiens, UniProt P36888); assay type: functional;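 note: FLT3 was tested as one member of a kinome-wide kinase panel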
T5 sequence (P36888 whole entry): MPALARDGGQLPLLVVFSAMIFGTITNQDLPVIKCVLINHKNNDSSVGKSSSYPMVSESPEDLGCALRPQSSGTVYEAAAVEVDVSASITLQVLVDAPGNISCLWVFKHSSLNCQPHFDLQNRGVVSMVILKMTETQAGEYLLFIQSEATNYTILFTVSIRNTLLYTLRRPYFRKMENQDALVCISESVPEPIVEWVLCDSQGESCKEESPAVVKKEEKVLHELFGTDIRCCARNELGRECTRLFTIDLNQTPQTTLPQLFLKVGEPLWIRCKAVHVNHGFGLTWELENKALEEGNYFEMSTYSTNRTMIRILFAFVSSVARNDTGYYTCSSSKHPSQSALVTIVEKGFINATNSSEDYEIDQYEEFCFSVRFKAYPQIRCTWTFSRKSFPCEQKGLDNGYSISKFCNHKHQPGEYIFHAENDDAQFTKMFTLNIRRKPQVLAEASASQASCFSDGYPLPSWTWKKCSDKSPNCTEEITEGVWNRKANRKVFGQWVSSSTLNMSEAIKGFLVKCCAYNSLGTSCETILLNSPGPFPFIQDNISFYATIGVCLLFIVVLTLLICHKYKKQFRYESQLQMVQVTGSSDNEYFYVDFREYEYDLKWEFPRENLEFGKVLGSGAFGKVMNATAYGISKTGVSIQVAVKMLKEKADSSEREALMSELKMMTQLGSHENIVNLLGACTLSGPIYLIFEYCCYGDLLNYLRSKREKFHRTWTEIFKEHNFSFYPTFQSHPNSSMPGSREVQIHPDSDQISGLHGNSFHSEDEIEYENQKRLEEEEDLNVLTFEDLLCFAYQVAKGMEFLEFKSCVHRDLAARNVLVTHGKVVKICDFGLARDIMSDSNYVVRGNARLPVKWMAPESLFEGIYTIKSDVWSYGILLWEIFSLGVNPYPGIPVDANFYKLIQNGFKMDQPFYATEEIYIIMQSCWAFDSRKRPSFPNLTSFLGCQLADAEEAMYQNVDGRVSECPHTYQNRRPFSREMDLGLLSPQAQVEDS

[18] = biological target: Dual specificity protein kinase CLK4 (Homo sapiens, UniProt Q9HAZ1); assay type: functional
[19] = biological target: Mitogen-activated protein kinase kinase kinase 20 (Homo sapiens, UniProt Q9NYL2); assay type: functional
[20] = biological target: Mitogen-activated protein kinase kinase kinase kinase 5 (Homo sapiens, UniProt Q9Y4K4); assay type: functional;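 note: measured as one member of a kinome-spanning kinase panel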
[21] = biological target: Aurora kinase B (Homo sapiens, UniProt Q96GD4); assay type: functional
[22] = biological target: Casein kinase I isoform delta (Homo sapiens, UniProt P48730); assay type: functional;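 note: measured as one member (CSNK1D) of a kinome panel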
[23] = biological target: Mitogen-activated protein kinase kinase kinase kinase 4 (Homo sapiens, UniProt O95819); assay type: functional
[24] = biological target: Apoptotic protease-activating factor 1 (Homo sapiens, UniProt O14727); assay type: functional
[25] = tested on: HEK293; test: EBV LMP1 TES2 canonical NF-kB signalling blockers – cell-based, HEK293, luciferase, cherry-pick, dose response (AID 588343); assay type: functional; conditions: Homo sapiens
[26] = biological target: Photoreceptor-specific nuclear receptor (Homo sapiens, UniProt Q9Y5X4); test: ligands suppressing NR2E3 nuclear receptor activity – biochemical, TR-FRET, dose response (AID 463256); assay type: functional
[27] = tested on: CHO-K1; test: Counterscreen for antagonists of the orexin 1 receptor (OX1R; HCRTR1): Homogeneous time resolved fluorescence (HTRF)-based cell-based dose response assay to identify antagonists of the parental CHO-K1 cell line. [Related pubchem assays (depositor defined):AID434989, AID435008, AID463079, AID485270, AID492963, AID492964, AID492965, AID493232, AID504699, AID504701]; assay type: functional; conditions: Cricetulus griseus;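 note: potency for inhibition of ATP-stimulated IP1 production as antagonists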
[28] = biological target: Peroxisome proliferator-activated receptor gamma/Nuclear receptor corepressor 2 (Homo sapiens, UniProt P37231+Q9Y618); test: Counterscreen for NR2E3 inverse agonists: TR-FRET-based biochemical high throughput dose response assay to identify inverse agonists of the interaction between peroxisome proliferator-activated receptor gamma (PPARg) and nuclear receptor co-repressor 2 (NCOR2).; assay type: functional
[29] = biological target: T6, Orexin receptor type 2 (Homo sapiens, UniProt O43614); test: Counterscreen assay for antagonists of the orexin 1 receptor (OX1R; HCRTR1): Homogeneous Time Resolved Fluorescence (HTRF)-based cell-based dose response assay for antagonists of the orexin 2 receptor (OX2R; HCRTR2), run by assay provider.; assay type: functional
[30] = biological target: T7, Orexin/Hypocretin receptor type 1 (Homo sapiens, UniProt O43613); test: Homogeneous Time Resolved Fluorescence (HTRF)-based cell-based high throughput dose response assay for antagonists of the orexin 1 receptor (OX1R; HCRTR1). [Related pubchem assays (depositor defined):AID434989, AID435008, AID463079, AID485270, AID492963, AID492964, AID492965, AID493232, AID504717, AID504718]; assay type: functional
[31] = biological target: T7, Orexin/Hypocretin receptor type 1; test: Fluorescence-based cell-based high throughput dose response assay for antagonists of the orexin 1 receptor (OX1R; HCRTR1). [Related pubchem assays (depositor defined):AID434989, AID435008, AID463079, AID485270, AID492963, AID492964, AID492965, AID493232, AID504717, AID504718]; assay type: functional
[32] = Counterscreen for antagonists of the orexin 1 receptor (OX1R; HCRTR1): Fluorescence-based cell-based high throughput dose response assay to identify antagonists of the parental CHO cell line. [Related pubchem assays (depositor defined):AID434989, AID435008, AID463079, AID485270, AID492963, AID492964, AID492965, AID493232, AID504699, AID504701]; assay type: functional
[33] = biological target: T6, Orexin receptor type 2; test: Counterscreen assay for antagonists of the orexin 1 receptor (OX1R; HCRTR1): Fluorescence-based cell-based dose response assay for antagonists of the orexin 2 receptor (OX2R; HCRTR2), run by assay provider.; assay type: functional
[34] = biological target: T8, Beta-2 adrenergic receptor (Homo sapiens, UniProt P07550); test: ADRB2 activation measured by internalization – cell-based, FAP fluorogen, flow cytometry, cherry pick 1, dose response (AID 588763); assay type: functional
[35] = biological target: T8, Beta-2 adrenergic receptor; test: Dose response for HTS for Beta-2AR agonists via FAP method from Powderset1.; assay type: functional

T3 sequence (P49840 whole entry): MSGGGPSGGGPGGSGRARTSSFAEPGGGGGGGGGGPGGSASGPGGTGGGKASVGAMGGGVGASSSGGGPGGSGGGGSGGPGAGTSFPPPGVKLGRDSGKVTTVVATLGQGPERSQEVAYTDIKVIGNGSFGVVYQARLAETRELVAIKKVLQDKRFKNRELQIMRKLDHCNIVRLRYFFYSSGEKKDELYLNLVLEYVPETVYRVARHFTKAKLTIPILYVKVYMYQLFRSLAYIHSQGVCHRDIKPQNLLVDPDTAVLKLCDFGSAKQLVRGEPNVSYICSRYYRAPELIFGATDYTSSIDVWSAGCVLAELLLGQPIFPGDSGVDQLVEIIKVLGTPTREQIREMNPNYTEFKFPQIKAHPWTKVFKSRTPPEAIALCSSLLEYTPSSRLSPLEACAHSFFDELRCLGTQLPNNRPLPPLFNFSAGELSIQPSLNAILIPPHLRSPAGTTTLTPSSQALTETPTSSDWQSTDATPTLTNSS
T2 sequence (Q00535 whole entry): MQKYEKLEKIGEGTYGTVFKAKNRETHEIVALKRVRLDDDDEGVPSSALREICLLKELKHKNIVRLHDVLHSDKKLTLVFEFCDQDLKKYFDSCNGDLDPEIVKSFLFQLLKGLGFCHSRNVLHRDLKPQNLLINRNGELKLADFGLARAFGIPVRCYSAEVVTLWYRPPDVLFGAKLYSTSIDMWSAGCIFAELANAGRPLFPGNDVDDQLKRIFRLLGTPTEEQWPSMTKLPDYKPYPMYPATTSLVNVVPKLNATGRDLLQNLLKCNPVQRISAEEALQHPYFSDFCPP
T2 sequence (Q15078 whole entry, further chain): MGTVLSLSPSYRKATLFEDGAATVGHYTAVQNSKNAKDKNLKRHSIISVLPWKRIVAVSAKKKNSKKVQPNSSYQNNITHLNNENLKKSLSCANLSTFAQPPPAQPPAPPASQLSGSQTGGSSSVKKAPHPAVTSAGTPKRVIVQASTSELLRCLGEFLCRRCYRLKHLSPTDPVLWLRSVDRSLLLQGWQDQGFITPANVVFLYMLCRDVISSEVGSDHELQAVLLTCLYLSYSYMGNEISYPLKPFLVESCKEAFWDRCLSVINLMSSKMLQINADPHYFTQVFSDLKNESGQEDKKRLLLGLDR
T4 sequence (P49841 whole entry): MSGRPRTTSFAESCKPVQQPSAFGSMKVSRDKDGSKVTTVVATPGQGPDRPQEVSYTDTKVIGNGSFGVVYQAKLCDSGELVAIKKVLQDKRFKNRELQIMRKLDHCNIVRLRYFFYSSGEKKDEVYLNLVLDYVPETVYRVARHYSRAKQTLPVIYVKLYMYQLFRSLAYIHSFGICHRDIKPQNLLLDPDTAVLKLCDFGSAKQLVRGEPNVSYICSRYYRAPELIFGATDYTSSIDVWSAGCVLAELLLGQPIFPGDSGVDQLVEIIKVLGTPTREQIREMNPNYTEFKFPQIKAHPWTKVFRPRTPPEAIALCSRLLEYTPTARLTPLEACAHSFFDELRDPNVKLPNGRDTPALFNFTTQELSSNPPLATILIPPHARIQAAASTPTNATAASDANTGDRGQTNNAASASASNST
T8 sequence (P07550 whole entry): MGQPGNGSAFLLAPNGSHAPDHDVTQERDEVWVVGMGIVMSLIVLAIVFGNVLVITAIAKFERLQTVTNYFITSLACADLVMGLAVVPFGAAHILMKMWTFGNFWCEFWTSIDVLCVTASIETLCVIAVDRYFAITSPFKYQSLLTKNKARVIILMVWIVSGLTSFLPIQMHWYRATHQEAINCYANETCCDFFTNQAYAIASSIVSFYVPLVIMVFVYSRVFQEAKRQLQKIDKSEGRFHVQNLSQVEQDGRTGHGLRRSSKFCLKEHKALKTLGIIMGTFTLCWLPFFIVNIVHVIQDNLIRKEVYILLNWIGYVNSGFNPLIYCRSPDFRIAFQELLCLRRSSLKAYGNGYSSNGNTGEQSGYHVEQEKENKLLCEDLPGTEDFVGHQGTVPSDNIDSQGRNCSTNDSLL
T7 sequence (O43613 whole entry): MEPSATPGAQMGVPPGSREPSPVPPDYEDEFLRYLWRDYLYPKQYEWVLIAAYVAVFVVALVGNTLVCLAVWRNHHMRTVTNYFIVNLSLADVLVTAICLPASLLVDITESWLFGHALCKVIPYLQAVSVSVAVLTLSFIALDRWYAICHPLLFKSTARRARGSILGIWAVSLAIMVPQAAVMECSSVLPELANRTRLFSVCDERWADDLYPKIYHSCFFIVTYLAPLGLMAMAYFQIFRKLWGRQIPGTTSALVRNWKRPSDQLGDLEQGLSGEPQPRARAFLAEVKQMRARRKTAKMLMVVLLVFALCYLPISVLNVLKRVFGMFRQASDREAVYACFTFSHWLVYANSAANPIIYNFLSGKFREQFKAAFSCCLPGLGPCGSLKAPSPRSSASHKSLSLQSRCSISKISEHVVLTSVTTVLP
T6 sequence (O43614 whole entry): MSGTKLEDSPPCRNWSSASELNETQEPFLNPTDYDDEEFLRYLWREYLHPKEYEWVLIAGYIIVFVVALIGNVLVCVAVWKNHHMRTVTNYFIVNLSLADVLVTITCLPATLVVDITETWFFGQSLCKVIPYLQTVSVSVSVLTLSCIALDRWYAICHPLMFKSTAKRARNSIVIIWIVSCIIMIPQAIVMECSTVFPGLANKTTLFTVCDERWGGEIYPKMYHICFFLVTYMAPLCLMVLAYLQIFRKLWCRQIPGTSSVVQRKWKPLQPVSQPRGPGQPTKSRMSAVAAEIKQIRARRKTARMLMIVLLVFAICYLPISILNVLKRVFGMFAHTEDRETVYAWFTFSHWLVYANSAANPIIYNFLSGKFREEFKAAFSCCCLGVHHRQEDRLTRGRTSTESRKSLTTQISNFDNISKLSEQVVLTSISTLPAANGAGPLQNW
Sequence of Latent membrane protein 1 (P03230 whole entry): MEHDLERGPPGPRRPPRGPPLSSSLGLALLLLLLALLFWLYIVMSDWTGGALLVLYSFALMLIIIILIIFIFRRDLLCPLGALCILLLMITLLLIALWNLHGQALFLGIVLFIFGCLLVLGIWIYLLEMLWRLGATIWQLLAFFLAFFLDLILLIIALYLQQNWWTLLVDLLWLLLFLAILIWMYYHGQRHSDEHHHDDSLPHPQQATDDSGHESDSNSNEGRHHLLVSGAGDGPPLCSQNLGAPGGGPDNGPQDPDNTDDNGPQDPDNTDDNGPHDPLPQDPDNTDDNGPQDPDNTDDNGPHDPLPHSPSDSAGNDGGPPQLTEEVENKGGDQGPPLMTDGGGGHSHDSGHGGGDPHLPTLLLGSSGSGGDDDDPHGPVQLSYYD
Sequence of Mitogen-activated protein kinase kinase kinase 20 (Q9NYL2 whole entry): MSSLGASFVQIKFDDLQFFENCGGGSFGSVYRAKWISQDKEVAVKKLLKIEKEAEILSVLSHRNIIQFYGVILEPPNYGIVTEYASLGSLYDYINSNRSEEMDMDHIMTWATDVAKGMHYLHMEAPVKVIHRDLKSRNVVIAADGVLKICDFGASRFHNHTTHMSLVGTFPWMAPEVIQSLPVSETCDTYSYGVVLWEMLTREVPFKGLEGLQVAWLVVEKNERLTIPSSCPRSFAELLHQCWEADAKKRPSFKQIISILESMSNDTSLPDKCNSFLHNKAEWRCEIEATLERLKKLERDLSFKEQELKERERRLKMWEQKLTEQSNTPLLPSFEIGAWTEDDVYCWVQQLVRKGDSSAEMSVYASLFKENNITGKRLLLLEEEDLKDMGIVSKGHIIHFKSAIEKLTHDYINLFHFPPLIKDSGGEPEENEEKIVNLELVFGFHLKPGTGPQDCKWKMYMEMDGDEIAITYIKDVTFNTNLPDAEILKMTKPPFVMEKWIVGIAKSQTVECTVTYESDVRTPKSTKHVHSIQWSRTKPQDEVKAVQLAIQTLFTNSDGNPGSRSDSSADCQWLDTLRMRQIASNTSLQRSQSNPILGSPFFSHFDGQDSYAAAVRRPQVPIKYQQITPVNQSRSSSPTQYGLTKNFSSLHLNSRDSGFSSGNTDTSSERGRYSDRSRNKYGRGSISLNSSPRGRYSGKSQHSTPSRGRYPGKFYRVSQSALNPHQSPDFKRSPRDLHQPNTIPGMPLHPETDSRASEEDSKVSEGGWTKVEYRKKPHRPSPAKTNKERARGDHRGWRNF
Sequence of Casein kinase I isoform delta (P48730 whole entry, canonical isoform): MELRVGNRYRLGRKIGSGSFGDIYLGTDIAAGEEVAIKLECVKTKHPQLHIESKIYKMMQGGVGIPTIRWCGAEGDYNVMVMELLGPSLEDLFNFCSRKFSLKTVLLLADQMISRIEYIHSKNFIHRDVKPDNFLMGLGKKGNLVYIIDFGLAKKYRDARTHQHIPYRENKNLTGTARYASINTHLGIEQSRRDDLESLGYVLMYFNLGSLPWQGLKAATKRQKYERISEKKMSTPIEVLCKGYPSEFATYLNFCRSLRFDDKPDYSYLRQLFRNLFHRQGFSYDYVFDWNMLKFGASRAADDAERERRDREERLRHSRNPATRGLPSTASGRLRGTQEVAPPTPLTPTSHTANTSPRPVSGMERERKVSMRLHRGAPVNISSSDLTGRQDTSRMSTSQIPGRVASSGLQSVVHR
Sequence of Dual specificity protein kinase CLK4 (Q9HAZ1 whole entry): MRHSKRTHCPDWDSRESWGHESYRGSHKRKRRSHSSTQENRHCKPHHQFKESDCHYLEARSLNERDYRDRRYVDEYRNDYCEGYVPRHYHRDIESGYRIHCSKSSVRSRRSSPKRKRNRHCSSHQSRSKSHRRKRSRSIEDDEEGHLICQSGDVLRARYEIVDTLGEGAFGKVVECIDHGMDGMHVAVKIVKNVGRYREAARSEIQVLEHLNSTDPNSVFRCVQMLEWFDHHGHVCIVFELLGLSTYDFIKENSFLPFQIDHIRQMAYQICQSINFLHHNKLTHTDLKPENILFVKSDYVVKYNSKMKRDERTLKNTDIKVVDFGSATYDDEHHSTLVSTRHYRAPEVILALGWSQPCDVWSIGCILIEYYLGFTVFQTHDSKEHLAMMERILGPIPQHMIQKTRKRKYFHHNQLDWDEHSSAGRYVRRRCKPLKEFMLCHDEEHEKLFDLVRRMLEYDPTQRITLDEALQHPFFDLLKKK

## CCCN1CCC(Oc2cccc(C(=O)NCCc3ccccc3)c2)CC1
[1]
  IC50: 10 µM (active)
[2]
  IC50: 4.22 µM (active)
[3]
  IC50: 3.76 µM (active)

## O=C1Nc2ccc3ncsc3c2/C1=C/Nc1ccc(S(=O)(=O)Nc2ccccn2)cc1
[4]
  AC50: < 0.023 µM (active)
[5]
  AC50: 144 nM (active) and 206 nM (active)
[6]
  AC50: 121 nM (active) and 281 nM (active)
[7]
  AC50: 12.4 nM (active) and < 16 nM (active)
[8]
  AC50: 11.3 nM (active) and < 30 nM (active)
[9]
  AC50: < 10 nM (active) and < 16 nM (active)

## C[C@@H]1CN([C@@H](C)CO)C(=O)c2cccc(NC(=O)Nc3cccc4ccccc34)c2O[C@H]1CN(C)S(=O)(=O)c1ccc2c(c1)OCCO2
[10]
  AC50: 83.8 µM (active)
[11]
  AC50: < 0.5 µM (active)
[12]
  AC50: 2.22 µM (active)
[13]
  AC50: 33.7 µM (active)
[13]; Rattus norvegicus
  AC50: 57.6 µM (active)
[14]
  AC50: 4.79 µM (active)
[15]
  AC50: 6.7 µM (active)

## COc1ccccc1NC(=O)Cn1nnc(-c2ccccc2NS(=O)(=O)c2ccccc2)n1
[16]
  AC50: 87 µM (active)

## c1cncc(Nc2ncc(-c3ccncn3)c(-c3ccco3)n2)c1
[17]
  Ki: 1.26 µM (active)
[18]
  Ki: 3.16 µM (active)
[19]
  Ki: 5.01 µM (active)
[20]
  Ki: 3.98 µM (active)
[21]
  Ki: 2.51 µM (active)
[22]
  Ki: 2 µM (active)
[23]
  Ki: 6.31 µM (active)

## CCN(c1ccccc1)S(=O)(=O)c1ccc(Cl)c(NC(=O)Nc2ccc(Cl)cc2C#N)c1
[24]
  IC50: 8.98 µM (active)
[25]
  AC50: 4.55 µM (active)

## O=C(CSc1ccc(-c2cccs2)nn1)c1cccs1
[26]
  IC50: 8.97 µM (active)
[27]
  IC50: > 66.2 µM (inactive)
[28]
  IC50: 9.5 µM (active)
[29]
  IC50: > 50 µM (inactive)
[30]
  IC50: 2.28 µM (active)
[31]
  IC50: > 0.614 µM (active)
[32]
  IC50: > 49.8 µM (inactive)
[33]
  IC50: > 88.8 µM (inactive)

## COC(=O)c1ccc(NC(=O)COc2ccc(S(=O)(=O)N3CCCCC3)cc2)cc1
[34]
  EC50: 590 nM (active) and 280 nM (active)
[35]
  EC50: 0.225 µM (active)

Reference: ChEMBL document CHEMBL1201862, “PubChem BioAssay data set” (2004)
